This is an account of results in patent US11262349B2, “Multiplexed immune cell assays on a micropillar/microwell chip platform” (Cleveland State University, priority 2017, dated 2022).

Assay [1] deals with Class II MHC on RAW 264.7 cells. As to the kind of experiment: Surface biomarker expression (class II MHC) in immune cells on micropillar/microwell chip. It is filed as cell-based, mouse. To be noted: 3D alginate/Matrigel, glycopolymers at 1250 μg/mL, LPS at 10 μg/mL, 48 hours, vs growth medium control (FIG. 15D). As for the experimental part:
(§1) FIGS. 8, 14, and 15 are discussed in Example 5.
(§2) The micropillars of a 384-pillar micropillar chip were coated with 0.01% PMA-OD. Then 16.6 mM BaCl2/0.0033% PLL were printed onto the micropillars using a […].
(§3) An immune-cell suspension was prepared using 0.75% alginate and 0.5 mg/mL Matrigel and then printed onto the coated micropillars.
(§4) Growth media was then printed into the microwells on a microwell chip using a […].
(§5) The micropillar chip was then sandwiched with the microwell chip for 30 minutes and incubated for 24 hours with fresh growth media.
(§6) Next, various glycopolymers at 1250 μg/mL (polyacrylamide, N-glucosyl polymer, N-mannosyl polymer, N-lactosyl polymer, N-α2,3-sialolactosyl polymer, and N-α2,6-sialolactosyl polymer) and LPS at 10 μg/mL [701] were printed into the microwells.
(§7) The micropillar chip was then sandwiched with the microwell plate containing glycopolymers and LPS [701] for 48 hours. The micropillar chip was then rinsed with TBS [801] for 10 minutes, then incubated with ice-cold methanol and acetone (1:1 ratio) for 10 minutes at room temperature. The micropillar chip was then rinsed with TBS twice for 5 minutes and incubated with blocking buffer (SuperBlock) for 1 hour at room temperature. […]

The test system of assay [2] is IL-6 production by RAW 264.7 cells. As to the kind of experiment: Cytokine secretion (IL-6) by immune cells on micropillar/microwell chip, 32-plex mouse cytokine array. It is filed as cell-based. The following applies: glycopolymers at 1250 μg/mL, LPS at 10 μg/mL, 24 hours, cell supernatant (FIG. 16B). As to the method:
(§8) FIGS. 9 and 16A-D are discussed in this example.
(§9) The micropillars on a micropillar chip were coated with 0.01% PMA-OD. Then 16.6 mM BaCl2/0.0033% PLL was printed on the micropillars using a microarray spotter.
(§10) An immune-cell suspension was prepared using RAW 264.7 cells, 0.75% alginate and 0.5 mg/mL Matrigel and then printed onto the coated micropillars. 60 nL spots of the immune-cell suspension were printed onto a micropillar chip with dried PLL-BaCl2 at a density of 3×10^6 cells/mL. After 2 minutes of alginate gelation and 24-hour incubation with a microwell chip containing 950 nL of cell growth media, the micropillar chip containing immune cells was sandwiched with a new microwell chip containing 950 nL of glycopolymers (polyacrylamide, N-glucosyl polymer, N-galactosyl polymer, N-mannosyl polymer, N-GlcNAc polymer, N-lactosyl polymer, N-α2,3 sialolactosyl polymer, and Nα2,6-sialolactosyl polymer) at 1250 μg/mL and LPS at 10 μg/mL, and incubated at 37° C. and 5% CO2 for 24 hours.
(§11) Separately, immune cells were cultured in 96-well plates in growth media and 10 μg/mL LPS for 24 hours as negative and positive controls for 2D monolayer culture.
(§12) The cell supernatants for all conditions were collected from the microwell chip and the 96-well plate, centrifuged, and analyzed for 32-plex mouse cytokine array measurements. […]

For assay [3], the system named is IL-10 production by RAW 264.7 cells. Briefly: Cytokine secretion (IL-10) by immune cells on micropillar/microwell chip, 32-plex mouse cytokine array. The following applies: glycopolymers at 1250 μg/mL, LPS at 10 μg/mL, 24 hours, cell supernatant (FIG. 16D). It is filed as cell-based. As for the experimental part: as §8, §9, §10, §11, §12
The subject of assay [4] is TNF-α production by RAW 264.7 cells. Briefly: Cytokine secretion (TNF-α) by immune cells on micropillar/microwell chip, 32-plex mouse cytokine array. It is filed as cell-based. To be noted: glycopolymers at 1250 μg/mL, LPS at 10 μg/mL, 24 hours, cell supernatant (FIG. 16A). As for the experimental part: as §8, §9, §10, §11, §12
For the next assay, the system named is CD40 on RAW 264.7 cells. Briefly: Surface biomarker expression (CD40) in immune cells on micropillar/microwell chip. It is filed as cell-based, mouse. To be noted: 3D alginate/Matrigel, glycopolymers at 1250 μg/mL, LPS at 10 μg/mL, 48 hours, vs growth medium control (FIG. 15A). As for the experimental part:
as §1, §2, §3, §4, §5, §6, §7

Another assay concerns CD80 on RAW 264.7 cells. Briefly: Surface biomarker expression (CD80) in immune cells on micropillar/microwell chip. Type of assay: cell-based, mouse. To be noted: 3D alginate/Matrigel, glycopolymers at 1250 μg/mL, LPS at 10 μg/mL, 48 hours, vs growth medium control (FIG. 15B). As to the method: as §1, §2, §3, §4, §5, §6, §7

In the case of lipopolysaccharide [LPS], in assay [1], the “expression level of class II MHC marker” value is “significantly enhanced”. In assay [2], the IL-6 production entry is reported as “significantly stimulated”. The IL-10 production entry in assay [3] is recorded as “significantly stimulated”. The TNF-α production entry in assay [4] was “significantly stimulated”. Further, the “expression level of CD40 marker” value in the assay on CD40 on RAW 264.7 cells is on record as “significantly enhanced”. Further, the “expression level of CD80 marker” value with CD80 on RAW 264.7 cells is given as “enhanced”.
